Results taken from ChEMBL document CHEMBL4334508, “Oleanolic Acid Derivatives as Potential Inhibitors of HIV-1 Protease” (J Nat Prod, 2019).

Molecular target: Protease (Human immunodeficiency virus 1, UniProt Q9YQ12)
Test: Inhibition of HIV1 protease expressed in Escherichia coli using Abz-Ala-Arg-Val-Nle-Tyr(NO2)-Glu-Ala-Nle-NH2 peptide as substrate by FRET assay

Sequence of Protease (Q9YQ12 whole entry): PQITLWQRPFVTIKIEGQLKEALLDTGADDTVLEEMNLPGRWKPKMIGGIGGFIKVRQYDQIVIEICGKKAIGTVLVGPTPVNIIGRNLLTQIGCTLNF

Structure (SMILES)	IC50
CC1(C)CC[C@]2(C(=O)NCCCCCCCCCCC(=O)O)CC[C@]3(C)C(=CC[C@@H]4[C@@]5(C)CC[C@H](OC(=O)CCCC(=O)O)C(C)(C)[C@@H]5CC[C@]43C)[C@@H]2C1	> 50 µM
CCC(=O)O[C@H]1CC[C@]2(C)[C@H]3CC=C4[C@@H]5CC(C)(C)CC[C@]5(C(=O)NCCCC(=O)O)CC[C@@]4(C)[C@]3(C)CC[C@H]2C1(C)C	> 50 µM
CCCCCCCCCCCC(=O)O[C@H]1CC[C@]2(C)[C@H]3CC=C4[C@@H]5CC(C)(C)CC[C@]5(C(=O)NCCCC(=O)NCC(=O)O)CC[C@@]4(C)[C@]3(C)CC[C@H]2C1(C)C	> 50 µM
CC1(C)CC[C@]2(C(=O)NCCCCCC(=O)O)CC[C@]3(C)C(=CC[C@@H]4[C@@]5(C)CC[C@H](OC(=O)c6ccccc6)C(C)(C)[C@@H]5CC[C@]43C)[C@@H]2C1	> 50 µM
CC1(C)CC[C@]2(C(=O)NCCCC(=O)O)CC[C@]3(C)C(=CC[C@@H]4[C@@]5(C)CC[C@H](OC(=O)CCC(=O)O)C(C)(C)[C@@H]5CC[C@]43C)[C@@H]2C1	17.7 µM
CCCC(=O)O[C@H]1CC[C@]2(C)[C@H]3CC=C4[C@@H]5CC(C)(C)CC[C@]5(C(=O)NCCCC(=O)O)CC[C@@]4(C)[C@]3(C)CC[C@H]2C1(C)C	> 50 µM
CCCCCCCCCCCC(=O)O[C@H]1CC[C@]2(C)[C@H]3CC=C4[C@@H]5CC(C)(C)CC[C@]5(C(=O)NCCCC(=O)O)CC[C@@]4(C)[C@]3(C)CC[C@H]2C1(C)C	> 50 µM
CCC(=O)O[C@H]1CC[C@]2(C)[C@H]3CC=C4[C@@H]5CC(C)(C)CC[C@]5(C(=O)NCCCC(=O)NCC(=O)O)CC[C@@]4(C)[C@]3(C)CC[C@H]2C1(C)C	> 50 µM
CC1(C)CC[C@]2(C(=O)NCCCC(=O)O)CC[C@]3(C)C(=CC[C@@H]4[C@@]5(C)CC[C@H](OC(=O)CCCC(=O)O)C(C)(C)[C@@H]5CC[C@]43C)[C@@H]2C1	20.4 µM
CC1(C)CC[C@]2(C(=O)NCCCC(=O)O)CC[C@]3(C)C(=CC[C@@H]4[C@@]5(C)CC[C@H](OC(=O)c6ccccc6)C(C)(C)[C@@H]5CC[C@]43C)[C@@H]2C1	> 50 µM
CC1(C)CC[C@]2(C(=O)NCCCCCCCCCCC(=O)O)CC[C@]3(C)C(=CC[C@@H]4[C@@]5(C)CC[C@H](OC(=O)CCC(=O)O)C(C)(C)[C@@H]5CC[C@]43C)[C@@H]2C1	> 50 µM
CC1(C)CC[C@]2(C(=O)NCCCC(=O)NCC(=O)O)CC[C@]3(C)C(=CC[C@@H]4[C@@]5(C)CC[C@H](OC(=O)c6ccccc6)C(C)(C)[C@@H]5CC[C@]43C)[C@@H]2C1	> 50 µM
CCC(=O)O[C@H]1CC[C@]2(C)[C@H]3CC=C4[C@@H]5CC(C)(C)CC[C@]5(C(=O)NCCCCCCCCCCC(=O)O)CC[C@@]4(C)[C@]3(C)CC[C@H]2C1(C)C	> 50 µM
CCCC(=O)O[C@H]1CC[C@]2(C)[C@H]3CC=C4[C@@H]5CC(C)(C)CC[C@]5(C(=O)NCCCCCCCCCCC(=O)O)CC[C@@]4(C)[C@]3(C)CC[C@H]2C1(C)C	> 50 µM
CC(C)(CC(=O)O)CC(=O)O[C@H]1CC[C@]2(C)[C@H]3CC=C4[C@@H]5CC(C)(C)CC[C@]5(C(=O)NCCCC(=O)O)CC[C@@]4(C)[C@]3(C)CC[C@H]2C1(C)C	33.3 µM
CC(=O)O[C@H]1CC[C@]2(C)[C@H]3CC=C4[C@@H]5CC(C)(C)CC[C@]5(C(=O)NCCCC(=O)O)CC[C@@]4(C)[C@]3(C)CC[C@H]2C1(C)C	32.6 µM
CC(C)(CC(=O)O)CC(=O)O[C@H]1CC[C@]2(C)[C@H]3CC=C4[C@@H]5CC(C)(C)CC[C@]5(C(=O)NCCCCCC(=O)O)CC[C@@]4(C)[C@]3(C)CC[C@H]2C1(C)C	12.4 µM
CC1(C)CC[C@]2(C(=O)NCCCC(=O)NCC(=O)O)CC[C@]3(C)C(=CC[C@@H]4[C@@]5(C)CC[C@H](OC(=O)CCCC(=O)O)C(C)(C)[C@@H]5CC[C@]43C)[C@@H]2C1	> 50 µM

Structure (SMILES)	IC50
CCCC(=O)O[C@H]1CC[C@]2(C)[C@H]3CC=C4[C@@H]5CC(C)(C)CC[C@]5(C(=O)NCCCC(=O)NCC(=O)O)CC[C@@]4(C)[C@]3(C)CC[C@H]2C1(C)C	> 50 µM
CC1(C)CC[C@]2(C(=O)NCCCC(=O)NCC(=O)O)CC[C@]3(C)C(=CC[C@@H]4[C@@]5(C)CC[C@H](OC(=O)CCC(=O)O)C(C)(C)[C@@H]5CC[C@]43C)[C@@H]2C1	> 50 µM
CC(=O)O[C@H]1CC[C@]2(C)[C@H]3CC=C4[C@@H]5CC(C)(C)CC[C@]5(C(=O)NCCCCCC(=O)O)CC[C@@]4(C)[C@]3(C)CC[C@H]2C1(C)C	> 50 µM
CCCCCCCCCCCC(=O)O[C@H]1CC[C@]2(C)[C@H]3CC=C4[C@@H]5CC(C)(C)CC[C@]5(C(=O)NCCCCCCCCCCC(=O)O)CC[C@@]4(C)[C@]3(C)CC[C@H]2C1(C)C	> 50 µM
CCCCCC(=O)O[C@H]1CC[C@]2(C)[C@H]3CC=C4[C@@H]5CC(C)(C)CC[C@]5(C(=O)NCCCCCCCCCCC(=O)O)CC[C@@]4(C)[C@]3(C)CC[C@H]2C1(C)C	> 50 µM
CCCCCC(=O)O[C@H]1CC[C@]2(C)[C@H]3CC=C4[C@@H]5CC(C)(C)CC[C@]5(C(=O)NCCCC(=O)O)CC[C@@]4(C)[C@]3(C)CC[C@H]2C1(C)C	> 50 µM
CC(=O)O[C@H]1CC[C@]2(C)[C@H]3CC=C4[C@@H]5CC(C)(C)CC[C@]5(C(=O)NCCCCCCCCCCC(=O)O)CC[C@@]4(C)[C@]3(C)CC[C@H]2C1(C)C	> 50 µM
CCCCCC(=O)O[C@H]1CC[C@]2(C)[C@H]3CC=C4[C@@H]5CC(C)(C)CC[C@]5(C(=O)NCCCC(=O)NCC(=O)O)CC[C@@]4(C)[C@]3(C)CC[C@H]2C1(C)C	> 50 µM
CC1(C)CC[C@]2(C(=O)NCCCCCC(=O)O)CC[C@]3(C)C(=CC[C@@H]4[C@@]5(C)CC[C@H](OC(=O)CCCC(=O)O)C(C)(C)[C@@H]5CC[C@]43C)[C@@H]2C1	1 µM
CCCCCC(=O)O[C@H]1CC[C@]2(C)[C@H]3CC=C4[C@@H]5CC(C)(C)CC[C@]5(C(=O)NCCCCCC(=O)O)CC[C@@]4(C)[C@]3(C)CC[C@H]2C1(C)C	> 50 µM
CC(=O)O[C@H]1CC[C@]2(C)[C@H]3CC=C4[C@@H]5CC(C)(C)CC[C@]5(C(=O)NCCCC(=O)NCC(=O)O)CC[C@@]4(C)[C@]3(C)CC[C@H]2C1(C)C	> 50 µM
CC(C)(CC(=O)O)CC(=O)O[C@H]1CC[C@]2(C)[C@H]3CC=C4[C@@H]5CC(C)(C)CC[C@]5(C(=O)NCCCCCCCCCCC(=O)O)CC[C@@]4(C)[C@]3(C)CC[C@H]2C1(C)C	> 50 µM
CCC(=O)O[C@H]1CC[C@]2(C)[C@H]3CC=C4[C@@H]5CC(C)(C)CC[C@]5(C(=O)NCCCCCC(=O)O)CC[C@@]4(C)[C@]3(C)CC[C@H]2C1(C)C	> 50 µM
CCCC(=O)O[C@H]1CC[C@]2(C)[C@H]3CC=C4[C@@H]5CC(C)(C)CC[C@]5(C(=O)NCCCCCC(=O)O)CC[C@@]4(C)[C@]3(C)CC[C@H]2C1(C)C	> 50 µM
CCCCCCCCCCCC(=O)O[C@H]1CC[C@]2(C)[C@H]3CC=C4[C@@H]5CC(C)(C)CC[C@]5(C(=O)NCCCCCC(=O)O)CC[C@@]4(C)[C@]3(C)CC[C@H]2C1(C)C	> 50 µM
CC1(C)CC[C@]2(C(=O)NCCCC(=O)NCC(=O)O)CC[C@]3(C)C(=CC[C@@H]4[C@@]5(C)CC[C@H](OC(=O)c6ccccc6C(=O)O)C(C)(C)[C@@H]5CC[C@]43C)[C@@H]2C1	2.2 µM
CC1(C)CC[C@]2(C(=O)NCCCCCCCCCCC(=O)O)CC[C@]3(C)C(=CC[C@@H]4[C@@]5(C)CC[C@H](OC(=O)c6ccccc6)C(C)(C)[C@@H]5CC[C@]43C)[C@@H]2C1	> 50 µM
